# Assay results as given in patent publication US4657907A, “Low dosage compositions of finely pulverized 2,4-diamino-6-(2,5-dichlorophenyl)-1,3,5-triazine and pharmaceutically acceptable acid addition salts thereof and administration thereof” (Nippon Shinyaku Co., Ltd., priority 1981, dated 1987).
# Several values for one entry are separate records, joined by “and”; a condition that tells them apart may be missing. Identical values can stand only once.
# Key:
# [1] = tested on: ulcer formation induced by stress; assay: Inhibition of stress ulcer formation (immobilization-water immersion method), oral; type: in vivo, rats; details: for dose dependency of stress ulcer inhibition: 0.3 to 30 mg/kg
# From the text: Since 50 microns is a common particle diameter in pharmaceutical preparations, it was most surprising that such significant and important advantages resulted. Inhibition activity against stress ulcer in rats of the compound and pharmaceutically acceptable acid addition salts in the finely pulverized form are set forth in Table 2.
# [2] = Body weight increase inhibition on chronic oral administration; type: in vivo, rats; details: for body weight increase: 10 mg/kg or more per day, chronic oral, rats
# From the text: A further advantage resulted from body weight increase inhibition which is one of the main side effects of the compound and salts of the present invention. […] This is a side effect of triazines of this type.
# The average particle sizes were 8 microns for the compound according our copending application as compared to the same compound having an average particle diameter of 50 microns.
# [3] = Clinical experiments: side effects in patients; type: in vivo, humans; details: 4 mg group
# Description: (§1) Clinical experiments were conducted wherein patients were given 1, 2 and 4 mg/day of 2,4-diamino-6-(2,5-dichlorophenyl)-1,3,5-triazine in separate groups. There were 133 patients participating in the group and 123 were separately analyzed (groups of 20, 46 and 57). The rate of recovery or cure of ulcers during those clinical trials over the period indicated was as follows:
# Only one side effect was noted. There was an increase in transaminase (GOT and GPT) observed in one case (1.8% of the total) in the 4 mg group.
# [4] = tested on: ulcers; assay: Clinical experiments: rate of recovery or cure of ulcers in patients; type: in vivo, humans
# Description: as §1, with “follows: […]” for “follows:”
# [5] = Average particle diameter after jet milling, Coulter Counter TA-II; type: physicochemical; details: jet mill PJM-100 NP; dispersed in physiological saline with Tween-80
# Description: 2,4-diamino-6-(2,5-dichlorophenyl)-1,3,5-triazine and pharmaceutically acceptable acid addition salts thereof may be finely pulverized to achieve the average particle diameter of 20 microns or less by using jet Mill PJM-100NP (Nippon Newmatic MEG Co.). The pulverization is carried out by feeding 2 kg or less of the substance per hour. An average particle diameter of about 8 microns may be prepared in that manner. If necessary, auxiliary pulverizing agents such as starch, anhydrous silicic acid, etc. may be used. In measuring average particle size, the powder is dispersed in physiological saline solution containing one drop of Tween-80 with the aid of an ultrasonic homogenizer for 30 seconds and measured by Coleter Counter TA-II (Coulter Electronics Co., U.S.A.) equipped with aperture tube of 100 microns.
# 2,4-Diamino-6-(2,5-dichlorophenyl)-1,3,5-triazine is powdered by supplying it at a rate of not more than 2 kg/hour to a Jet Mill PJM-100 NP (Nippon Newmatic Mfg. Co.). The pulverized pharmaceutical is dispersed in a physiological saline solution containing one drop of Tween-80 by the use of ultrasonic homogenizer for 30 seconds and their particle diameter in average is measured by Coulter Counter TA-II (Coleter Eelectronics Co., USA) and the result is about 8 microns.
# [6] = tested on: rats; assay: Acute toxicity (LD50), intraperitoneal injection; type: in vivo; details: dosages up to 3000 mg/kg, average particle diameter about 8 microns
# From the text: This decrease in toxicity is totally unexpected and represents a significant and important advance in the art.
# [7] = tested on: ulcer formation induced by stress; assay: Inhibition of stress ulcer formation (immobilization-water immersion method), oral; type: in vivo, rats; details: average particle diameter about 50 microns; for Inhibition Rate (stress ulcer): three repeat values
# [8] = 0.3 mg/kg, finely pulverized form
# [9] = 1.0 mg/kg, finely pulverized form
# [10] = 3.0 mg/kg, finely pulverized form
# [11] = 10 mg/kg, finely pulverized form
smiles,measurement,setting,value
Nc1nc(N)nc(-c2cc(Cl)ccc2Cl)n1 [Substance (II)],Inhibition Rate (stress ulcer),[1]; [8],35%
same,Inhibition Rate (stress ulcer),[1]; [9],51%
same,Inhibition Rate (stress ulcer),[1]; [10],70%
same,Inhibition Rate (stress ulcer),[1]; [11],85%
same,dose dependency of stress ulcer inhibition,[1]; finely pulverized form,linear dose dependency
same,ED50 (stress ulcer inhibition),"[1]; per os, finely pulverized form, from Table 2 data",0.90 mg/kg
same,body weight increase,[2],body weight increase was inhibited
same,improvement in body weight side effect,[2]; maleate salt according to the invention compared with maleate salt of about 50 microns,particularly dramatic
"Nc1nc(N)nc(-c2cc(Cl)ccc2Cl)n1 [Substance (I), 2,4-diamino-6-(2,5-dichlorophenyl)-1,3,5-triazine]","increase in transaminase (GOT and GPT), cases",[3]; only side effect noted,one case
same,"increase in transaminase (GOT and GPT), incidence",[3]; printed as % of the total,1.8%
same,rate of recovery or cure of ulcers,"[4]; 1 mg/day, 4 weeks",20.0%
same,rate of recovery or cure of ulcers,"[4]; 1 mg/day, 8 weeks",50.0%
same,rate of recovery or cure of ulcers,"[4]; 2 mg/day, 4 weeks",17.4%
same,rate of recovery or cure of ulcers,"[4]; 2 mg/day, 8 weeks",47.8%
same,rate of recovery or cure of ulcers,"[4]; 4 mg/day, 4 weeks",41.6%
same,rate of recovery or cure of ulcers,"[4]; 4 mg/day, 8 weeks",56.1%
same,"recovery rate of ulcer improvement, degree of ulcer, effect against subjective and non-subjective symptoms","[4]; hospitalized patients, 4 mg group compared with other groups",marked superiority
same,average particle diameter,[5],about 8 microns
same,Inhibition Rate (stress ulcer),[1]; [8],33%
same,Inhibition Rate (stress ulcer),[1]; [9],45%
same,Inhibition Rate (stress ulcer),[1]; [10],63%
same,Inhibition Rate (stress ulcer),[1]; [11],70%
same,Inhibition Rate (stress ulcer),"[1]; 30 mg/kg, finely pulverized form",85%
same,dose dependency of stress ulcer inhibition,[1]; finely pulverized form,linear dose dependency
same,activity on ulcer formation induced by stress,"[1]; oral, 1 mg/kg, finely pulverized (compound of earlier invention)",effective
same,body weight increase,[2],body weight increase was inhibited
same,recovery of body weight,[2]; about 8 microns compared to about 50 microns,far faster
same,body weight increase inhibition (side effect),[2]; average particle diameter about 8 microns,only transient and moderate
same,lethality,[6],no rats were killed
same,Inhibition Rate (stress ulcer),[7]; 0.37 mg/kg per os,37% and 46% and 29%
same,Inhibition Rate (stress ulcer),[7]; 3.72 mg/kg per os,62% and 47% and 33%
same,activity on ulcer formation induced by stress,"[7]; oral, 5 mg/kg",ineffective
